Calls of active or inactive are those of the source. The rule behind the calls is not given here.
Legend:
HT-29 [1] = experiment: Cytotoxicity against HT29 cell line without 4 Gy [60Co]-induced irradiation by MTT assay relative to control; assay type: cell-based; conditions: human
HT-29 [2] = experiment: Cytotoxicity against 4 Gy [60Co] irradiated HT29 cell line by MTT assay relative to control; assay type: cell-based; conditions: human
HT-29 [3] = experiment: Radiosensitizing activity in 4 Gy [60Co] irradiated HT29 cells; assay type: functional, cell-based; conditions: Homo sapiens
SP2 = experiment: Radiosensitizing activity in SP2 cell line; assay type: functional, cell-based; conditions: Mus musculus
HT-29 [4] = experiment: Inhibition of viability in 4 Gy [60Co] irradiated HT29 cells at 10 uM relative to control; assay type: functional, Homo sapiens
HT-29 [5] = experiment: Radiosensitizing activity in 4 Gy [60Co] irradiated HT29 cells at 2.5 uM; assay type: functional, cell-based; conditions: Homo sapiens
HT-29 [6] = experiment: Cytotoxicity against HT29 cell line below 2.5 uM; assay type: cell-based; conditions: human

| Compound | Activity (HT-29 [1]) | Activity (HT-29 [2]) | Activity (HT-29 [3]) | Activity (SP2) | Activity (HT-29 [4]) [%] | Activity (HT-29 [5]) | Activity (HT-29 [6]) |
| --- | --- | --- | --- | --- | --- | --- | --- |
| CCCNc1ccc([N+](=O)[O-])cc1[N+](=O)[O-] | 20% | 20% | inactive | – | – | – | – |
| O=c1[nH]cc(F)c(=O)n1CCCNc1ccc([N+](=O)[O-])cc1[N+](=O)[O-] | Not Active | Not Active | – | Active | 60 | Active | – |
| O=c1[nH]cc(F)c(=O)[nH]1 [FLUOROURACIL] | 65% | 65% | inactive | – | – | – | Not Active |
| NC(=O)NO [HYDROXYUREA] | 25% | 25% | – | – | – | – | – |
| NC(=O)NOCCCNc1ccc([N+](=O)[O-])cc1[N+](=O)[O-] | Not Active | Not Active | – | Active | 60 | Active | – |
